Reference: ChEMBL document CHEMBL4482308, “Ghrelin o-acyltransferase inhibitors” (2017)
Active and inactive are the calls of the source. The rule behind the calls is not given here.

Tests used:
[1] = target: T1, Membrane-bound ghrelin O-acyltransferase MBOAT4 (Mus musculus) (UniProt P0C7A3); assay: Inhibition of mouse GOAT expressed in HEK293FT cells co-expressing pre-proghrelin assessed as reduction in ghrelin octanoylation up to 1 uM incubated for 24 hrs by ELISA; assay type: cell-based
T1 sequence (whole entry): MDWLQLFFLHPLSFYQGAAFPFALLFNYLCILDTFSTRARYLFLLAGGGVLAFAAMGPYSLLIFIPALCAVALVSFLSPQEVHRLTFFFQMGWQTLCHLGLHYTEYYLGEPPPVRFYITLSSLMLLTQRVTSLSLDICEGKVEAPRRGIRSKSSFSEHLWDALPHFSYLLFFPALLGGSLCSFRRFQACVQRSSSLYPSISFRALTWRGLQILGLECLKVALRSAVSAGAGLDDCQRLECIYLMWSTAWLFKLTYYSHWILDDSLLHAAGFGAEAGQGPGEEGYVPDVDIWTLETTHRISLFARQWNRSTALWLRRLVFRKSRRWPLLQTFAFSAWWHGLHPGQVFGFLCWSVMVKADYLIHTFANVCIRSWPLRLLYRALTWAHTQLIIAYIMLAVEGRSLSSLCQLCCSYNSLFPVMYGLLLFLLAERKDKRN

[2] = Cytotoxicity in HEK293FT cells co-expressing mouse GOAT and pre-proghrelin assessed as reduction in cell viability incubated for 24 hrs by alamar blue assay; assay type: cell-based; settings: human, read-out: LD50

Structure (SMILES)	inhibition [1]	CC50 at 24 h [2] [µM]
CC1(C)CC[C@]2(C(=O)O)CC[C@]3(C)[C@H](C(=O)C=C4[C@@]5(C)C=C(C#N)C(=O)C(C)(C)[C@@H]5CC[C@]43C)[C@@H]2C1	inactive	
CCNC(=O)[C@]12CCC(C)(C)C[C@H]1[C@H]1C(=O)C=C3[C@@]4(C)C=C(C#N)C(=O)C(C)(C)[C@@H]4CC[C@@]3(C)[C@]1(C)CC2		≥ 10
COC(=O)[C@]12CCC(C)(C)C[C@H]1[C@H]1C(=O)C=C3[C@@]4(C)C=C(C#N)C(=O)C(C)(C)[C@@H]4CC[C@@]3(C)[C@]1(C)CC2 [BARDOXOLONE METHYL]		≥ 10
